Assay type in all cases: cell-based
One test deals with Fusarium graminearum. The following applies: in vitro.
For another test, the system named is Puccinia striiformis. Briefly: In vitro antifungal screening of strain extracts and fractions.
The subject of a further test is Zymoseptoria tritici.

On to Takanawaene C, for which the “growth inhibition, Fusarium graminearum” value in the test with Fusarium graminearum is 100% growth. Further, the “growth inhibition, Puccinia striiformis” value in the test with Puccinia striiformis amounted to 100% inhibition. Further, in the test with Zymoseptoria tritici, the “growth inhibition, Zymospetoria tritici” value is given as 9% growth.

Source of the values: patent US20240306646A1, “BROAD SPECTRUM PATHOGEN CONTROL IN PLANTS” (APHEA. BIO NV, priority 2021, published 2024).
